Experimental data published in publication PMC6825211 (Nature Communications, 2019).
pIC50: −log10 of the molar value. “And” between values parts separate entries of the source, which are not always exact repeats. Identical values can stand only once. “Also recorded” adds a separate entry of the source.

What was measured:
PI3-KINASE-ALPHA = PI3-KINASE-ALPHA (Homo sapiens, UniProt P42336); assay: Nanosyn kinase profiling, mobility shift assay; conditions: read-out: % inhibition by neratinib
AXL = target: T1, AXL (Homo sapiens, UniProt P30530); assay: Nanosyn kinase profiling, mobility shift assay; format: biochemical; conditions: 12 points dose response
T1 construct: Nanosyn (assay service)
T1 sequence (P30530 26-894, species assumed): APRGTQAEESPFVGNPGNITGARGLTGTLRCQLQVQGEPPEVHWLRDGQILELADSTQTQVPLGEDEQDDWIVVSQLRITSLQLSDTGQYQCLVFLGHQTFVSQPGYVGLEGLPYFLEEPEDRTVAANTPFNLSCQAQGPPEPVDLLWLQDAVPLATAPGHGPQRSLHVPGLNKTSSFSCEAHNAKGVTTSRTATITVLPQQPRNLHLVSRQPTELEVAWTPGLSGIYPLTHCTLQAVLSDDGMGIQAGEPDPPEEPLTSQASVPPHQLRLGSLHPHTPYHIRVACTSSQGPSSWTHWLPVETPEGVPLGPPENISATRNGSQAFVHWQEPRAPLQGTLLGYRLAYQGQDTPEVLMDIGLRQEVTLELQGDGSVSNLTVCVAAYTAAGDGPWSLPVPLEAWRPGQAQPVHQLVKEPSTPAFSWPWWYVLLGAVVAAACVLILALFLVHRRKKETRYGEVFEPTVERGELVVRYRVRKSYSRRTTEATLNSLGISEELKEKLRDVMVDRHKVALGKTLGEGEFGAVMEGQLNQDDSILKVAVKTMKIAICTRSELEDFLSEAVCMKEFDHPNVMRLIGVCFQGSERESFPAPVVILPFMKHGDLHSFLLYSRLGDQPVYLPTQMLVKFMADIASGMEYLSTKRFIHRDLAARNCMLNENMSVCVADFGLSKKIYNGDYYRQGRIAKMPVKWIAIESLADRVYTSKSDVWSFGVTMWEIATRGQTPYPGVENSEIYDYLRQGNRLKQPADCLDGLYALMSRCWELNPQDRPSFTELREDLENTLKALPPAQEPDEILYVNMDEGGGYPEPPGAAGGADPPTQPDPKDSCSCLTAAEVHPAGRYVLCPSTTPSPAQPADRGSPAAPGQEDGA
Description: inhibition was determined for each assay.

MST1–LATS2 signaling = assay: LATS-BS in vitro luciferase assay (MST1/LATS2 overexpression); conditions: for Firefly/Renilla x1000 (MEAN): L2/Mst1 overexpression + 10 μM compound
Description: Therefore a LATS-BS construct has been generated with fusion of YAP fragment and 14-3-3 with N-terminal and C-terminal firefly luciferase fragments (N-luc and C-luc), respectively that assesses LATS kinase activity by measuring the interaction between pS127-YAP and 14-3-3[35] in a MST1–LATS2-phosphorylation-dependent manner (Fig. 4a).
As internal transfection control, pRL-Renilla luciferase control reporter vector (Promega) was co-transfected into each sample. […] Luciferase signal was calculated based on the ratio of luciferase activity of LATS-BS to control reporter vector.

ITK = ITK (Homo sapiens, UniProt Q08881); assay: Nanosyn kinase profiling, mobility shift assay; conditions: read-out: % inhibition by neratinib
Sequence of ITK (Q08881 whole entry): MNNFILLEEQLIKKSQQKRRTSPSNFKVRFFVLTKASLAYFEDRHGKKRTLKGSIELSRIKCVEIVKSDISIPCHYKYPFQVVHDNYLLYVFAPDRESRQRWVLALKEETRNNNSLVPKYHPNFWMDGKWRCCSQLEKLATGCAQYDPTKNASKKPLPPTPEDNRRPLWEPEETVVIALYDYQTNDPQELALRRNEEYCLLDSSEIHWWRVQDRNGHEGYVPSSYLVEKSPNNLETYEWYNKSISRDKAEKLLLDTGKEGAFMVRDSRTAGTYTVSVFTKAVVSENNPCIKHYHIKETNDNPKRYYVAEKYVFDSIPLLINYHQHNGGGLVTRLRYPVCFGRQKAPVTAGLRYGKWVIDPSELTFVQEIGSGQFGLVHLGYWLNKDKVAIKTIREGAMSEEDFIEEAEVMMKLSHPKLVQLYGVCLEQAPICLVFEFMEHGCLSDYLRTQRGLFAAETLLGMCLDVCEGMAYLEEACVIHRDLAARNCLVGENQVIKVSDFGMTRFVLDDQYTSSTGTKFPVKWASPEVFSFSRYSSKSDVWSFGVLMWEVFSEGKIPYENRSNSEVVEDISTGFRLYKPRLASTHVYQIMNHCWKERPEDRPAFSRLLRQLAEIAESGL

IGF1R = IGF1R (Homo sapiens, UniProt P08069); assay: Nanosyn kinase profiling, mobility shift assay; conditions: read-out: % inhibition by neratinib
[1] = tested on: obese diabetic Lepr db/db mice; assay: db/db model: insulin secretion during ipGTT; format: in vivo, mouse; set-up: GSIS: unit not given here
Text: Data are representative of six mice per group (n = 6 for (a–f)). g–j Mice were killed at day 31. g β-cell mass (given as percentage of the whole pancreatic section from ten sections spanning the width of the pancreas; n = 5 mice/group) and quantitative analyses from triple stainings for (h) TUNEL, (i) Ki67, (j) pHH3, and (k) nuclear PDX1 expression, insulin, and DAPI expressed as percentage of TUNEL-, Ki67-, pHH3-, or nuclear PDX1-positive β-cells ± SEM. An average number of 13667 (h), 5937 (i), 7108 (j), or 4330 (k) β-cells were counted from n = 3–5 (h, i, k) or n = 5–6 (j) mice/group.
(§1) For intraperitoneal glucose tolerance tests, mice were fasted 12 h overnight and injected i.p. with glucose (40%; B.Braun, Melsungen, Germany) at a dose of 1 g/kg body weight. Blood samples were obtained at time points 0, 15, 30, 60, 90, and 120 min for glucose measurements by using a Glucometer. For i.p. insulin tolerance tests, mice were injected with 0.75 U/kg body weight recombinant human insulin (Novolin, Novo Nordisk) after 4–5-h fasting, and glucose concentration was determined with the Glucometer. Insulin secretion was measured before (0 min) and after (15 and 30 min) i.p. injection of glucose (2 g/kg) and measured by using ultrasensitive mouse Elisa kit (ALPCO Diagnostics, Salem, NH).

[2] = tested on: panel of 50 serine, threonine, and tyrosine kinases; assay: Nanosyn panel of 50 biochemical kinase assays; conditions: 10 µM, of 50 kinases
CSK = CSK (Homo sapiens, UniProt P41240); assay: Nanosyn kinase profiling, mobility shift assay; conditions: read-out: % inhibition by neratinib
Sequence of CSK (P41240 whole entry): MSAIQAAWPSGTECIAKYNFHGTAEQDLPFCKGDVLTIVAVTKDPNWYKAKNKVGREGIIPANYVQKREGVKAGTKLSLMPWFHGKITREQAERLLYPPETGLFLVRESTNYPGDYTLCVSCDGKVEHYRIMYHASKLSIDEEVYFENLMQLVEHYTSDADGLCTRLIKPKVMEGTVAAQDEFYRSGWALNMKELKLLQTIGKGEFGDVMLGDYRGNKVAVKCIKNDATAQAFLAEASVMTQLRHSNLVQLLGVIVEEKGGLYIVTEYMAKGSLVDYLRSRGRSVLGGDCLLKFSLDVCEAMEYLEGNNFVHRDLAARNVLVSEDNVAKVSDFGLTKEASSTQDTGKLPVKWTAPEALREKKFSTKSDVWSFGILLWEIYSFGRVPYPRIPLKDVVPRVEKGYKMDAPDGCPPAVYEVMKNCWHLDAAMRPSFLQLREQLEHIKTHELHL

MLD–STZ C57BL/6J mice [3] = assay: MLD–STZ model: β-cell proliferation (Ki67); format: in vivo, mouse
JAK2 = JAK2 (Homo sapiens, UniProt O60674); assay: Nanosyn kinase profiling, mobility shift assay; conditions: read-out: % inhibition by neratinib
JNK2 = JNK2 (Homo sapiens, UniProt P45984); assay: Nanosyn kinase profiling, mobility shift assay; conditions: read-out: % inhibition by neratinib
Sequence of JNK2 (P45984 whole entry): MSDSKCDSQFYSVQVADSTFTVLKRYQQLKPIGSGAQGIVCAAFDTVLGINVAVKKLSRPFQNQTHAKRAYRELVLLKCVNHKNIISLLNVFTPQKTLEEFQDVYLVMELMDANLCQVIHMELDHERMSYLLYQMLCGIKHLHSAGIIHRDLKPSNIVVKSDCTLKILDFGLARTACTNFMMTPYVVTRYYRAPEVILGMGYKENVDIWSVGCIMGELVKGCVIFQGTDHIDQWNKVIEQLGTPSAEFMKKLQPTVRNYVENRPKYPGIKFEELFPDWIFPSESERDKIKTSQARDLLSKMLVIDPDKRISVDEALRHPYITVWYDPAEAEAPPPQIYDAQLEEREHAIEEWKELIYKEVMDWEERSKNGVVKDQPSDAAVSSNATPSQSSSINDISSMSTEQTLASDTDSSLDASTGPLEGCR

human islets = assay: β-cell apoptosis (TUNEL/insulin) after Ad-MST1 overexpression; conditions: for mean TUNEL/isolation/%: MST1 OE + NERA 10 μM 48 h
Description: Isolated human islets or INS-1E cells were infected with adenovirus carrying LacZ as control or MST1 or LATS2 (all Vector Biolabs), at a multiplicity of infection of 100 (human islets) or 20 (INS-1E) for 4 h[11].

MLD–STZ C57BL/6J mice [4] = assay: MLD–STZ model: intraperitoneal insulin tolerance test (ipITT); format: in vivo, mouse; set-up: ipITT glucose: unit not given here
Description: C57Bl/6J mice were injected with 40 mg/kg streptozotocin or citrate buffer for 5 consecutive days. […] In d, basal glucose values were normalized to 100%. e Insulin secretion measured from retro-orbital blood draw during an ipGTT measured before (0 min) and 15 min after glucose injection; data are expressed as the ratio of secreted insulin at 15 min/0 min (stimulatory index). f The ratio of secreted insulin and glucose is calculated at fed state. g–i Mice were killed at day 35. g β-cell mass (given as percentage of the whole pancreatic section from ten sections spanning the width of the pancreas) and quantitative analyses from triple staining for h TUNEL or i Ki67, insulin, and DAPI expressed as percentage of TUNEL- or Ki67-positive β-cells ±SEM. An average number of 2331 (h), or 26369 (i) β-cells were counted. n = 9 mice/group for (a); n = 4–12 for (b); n = 5–15 for (c) and (d); n = 12–19 for (e); n = 8–14 for (f); n = 4–9 for (g); n = 4–11 for (h); and n = 6–11 mice/groupfor (i); all from three independent experiments).
as §1

ROCK1 = ROCK1 (Homo sapiens, UniProt Q13464); assay: Nanosyn kinase profiling, mobility shift assay; conditions: read-out: % inhibition by neratinib
db/db model: body weight = conditions: 5 mg/kg i.p. daily, 31 days
MST family members = tested on: MST family members; set-up: method as in PMID 22037378; conditions: cited from earlier work
PRKD2 = PRKD2 (Homo sapiens, UniProt Q9BZL6); assay: Nanosyn kinase profiling, mobility shift assay; conditions: read-out: % inhibition by neratinib
Sequence of PRKD2 (Q9BZL6 whole entry): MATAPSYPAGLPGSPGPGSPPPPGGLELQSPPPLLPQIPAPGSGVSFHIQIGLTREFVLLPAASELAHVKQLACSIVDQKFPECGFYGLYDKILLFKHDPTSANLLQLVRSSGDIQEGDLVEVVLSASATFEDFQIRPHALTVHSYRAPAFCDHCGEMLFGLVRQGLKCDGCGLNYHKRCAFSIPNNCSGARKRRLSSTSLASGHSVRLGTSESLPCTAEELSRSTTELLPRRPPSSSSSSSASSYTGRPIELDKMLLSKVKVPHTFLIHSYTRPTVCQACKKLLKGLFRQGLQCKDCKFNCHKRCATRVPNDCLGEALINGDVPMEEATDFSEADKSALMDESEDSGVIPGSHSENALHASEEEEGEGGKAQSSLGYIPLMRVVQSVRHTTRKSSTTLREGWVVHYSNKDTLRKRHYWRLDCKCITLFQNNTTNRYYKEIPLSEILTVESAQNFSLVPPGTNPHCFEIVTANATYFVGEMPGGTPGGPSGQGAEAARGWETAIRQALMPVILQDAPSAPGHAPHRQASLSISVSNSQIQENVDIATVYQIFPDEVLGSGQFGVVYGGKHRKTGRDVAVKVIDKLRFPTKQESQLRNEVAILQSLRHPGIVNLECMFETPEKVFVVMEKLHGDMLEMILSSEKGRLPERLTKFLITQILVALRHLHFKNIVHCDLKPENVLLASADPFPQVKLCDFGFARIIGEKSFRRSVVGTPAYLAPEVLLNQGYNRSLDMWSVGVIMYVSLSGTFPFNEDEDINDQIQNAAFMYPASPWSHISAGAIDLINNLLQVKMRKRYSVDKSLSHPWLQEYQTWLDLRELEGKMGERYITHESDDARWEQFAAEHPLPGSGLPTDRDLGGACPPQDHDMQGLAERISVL

Sequence of PI3-KINASE-ALPHA (P42336 whole entry): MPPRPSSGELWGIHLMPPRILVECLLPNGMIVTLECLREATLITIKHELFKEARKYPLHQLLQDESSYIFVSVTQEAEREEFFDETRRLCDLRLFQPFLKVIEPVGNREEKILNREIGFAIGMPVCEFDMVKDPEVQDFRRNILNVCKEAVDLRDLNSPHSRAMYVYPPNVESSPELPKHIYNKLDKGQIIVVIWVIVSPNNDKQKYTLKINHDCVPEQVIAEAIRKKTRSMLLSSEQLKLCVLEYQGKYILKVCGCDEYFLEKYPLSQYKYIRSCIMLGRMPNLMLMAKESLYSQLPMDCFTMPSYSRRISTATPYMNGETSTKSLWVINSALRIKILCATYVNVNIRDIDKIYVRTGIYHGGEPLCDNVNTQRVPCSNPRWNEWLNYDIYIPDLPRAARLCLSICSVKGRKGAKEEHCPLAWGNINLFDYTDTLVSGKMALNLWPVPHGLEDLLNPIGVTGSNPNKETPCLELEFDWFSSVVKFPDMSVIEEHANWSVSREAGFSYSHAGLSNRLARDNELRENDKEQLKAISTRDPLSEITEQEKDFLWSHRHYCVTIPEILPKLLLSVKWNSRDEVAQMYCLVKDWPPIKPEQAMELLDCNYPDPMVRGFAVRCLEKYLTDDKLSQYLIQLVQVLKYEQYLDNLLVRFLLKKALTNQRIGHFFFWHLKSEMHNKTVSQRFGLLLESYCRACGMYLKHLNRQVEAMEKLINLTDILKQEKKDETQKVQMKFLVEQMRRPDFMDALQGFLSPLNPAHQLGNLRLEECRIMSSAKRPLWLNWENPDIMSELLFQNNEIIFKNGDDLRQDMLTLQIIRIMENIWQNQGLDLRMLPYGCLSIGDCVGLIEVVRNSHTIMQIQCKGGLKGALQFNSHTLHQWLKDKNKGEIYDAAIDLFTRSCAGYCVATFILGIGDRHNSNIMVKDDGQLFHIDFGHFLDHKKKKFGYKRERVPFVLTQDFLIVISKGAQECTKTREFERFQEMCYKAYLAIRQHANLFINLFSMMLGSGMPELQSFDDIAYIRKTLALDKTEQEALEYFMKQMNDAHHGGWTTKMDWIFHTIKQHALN
Sequence of PI3-KINASE-ALPHA (P27986 whole entry partner): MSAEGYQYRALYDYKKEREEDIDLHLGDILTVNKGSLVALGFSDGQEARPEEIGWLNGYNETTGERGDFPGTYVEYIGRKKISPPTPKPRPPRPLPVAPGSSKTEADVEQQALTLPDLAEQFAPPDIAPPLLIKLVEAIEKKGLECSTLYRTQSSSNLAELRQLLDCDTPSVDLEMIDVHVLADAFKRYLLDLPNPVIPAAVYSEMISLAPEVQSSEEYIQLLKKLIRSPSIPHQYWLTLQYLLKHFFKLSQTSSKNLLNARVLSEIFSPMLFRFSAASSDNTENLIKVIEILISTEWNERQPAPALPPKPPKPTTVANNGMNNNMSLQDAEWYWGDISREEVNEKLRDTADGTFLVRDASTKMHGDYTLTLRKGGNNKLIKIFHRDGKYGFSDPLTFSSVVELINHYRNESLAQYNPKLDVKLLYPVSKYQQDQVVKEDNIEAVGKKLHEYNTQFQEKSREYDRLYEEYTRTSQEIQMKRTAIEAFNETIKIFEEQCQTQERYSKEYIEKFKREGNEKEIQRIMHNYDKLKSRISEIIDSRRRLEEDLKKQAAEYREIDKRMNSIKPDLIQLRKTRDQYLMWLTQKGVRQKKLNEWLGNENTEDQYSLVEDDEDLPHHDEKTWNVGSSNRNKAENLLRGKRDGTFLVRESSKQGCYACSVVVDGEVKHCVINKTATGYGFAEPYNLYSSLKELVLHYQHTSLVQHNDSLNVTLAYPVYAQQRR

Q: Which inhibition at 10 µM (PI3-KINASE-ALPHA) does the source give for CCOc1cc2ncc(C#N)c(Nc3ccc(OCc4ccccn4)c(Cl)c3)c2cc1NC(=O)/C=C/CN(C)C [neratinib] here?
A: 18%

Q: What about the pIC50 (AXL) of the same compound?
A: 6.73

Q: What about the “MST1/LATS2-induced luciferase activity (LATS-BS)” value (MST1–LATS2 signaling; 10 μM, last 24 h) of the same compound?
A: strongly inhibited

Q: What about the “Firefly/Renilla x1000 (MEAN)” value (MST1–LATS2 signaling; mean of six dishes) of the same compound?
A: 10.9109

Q: What about the “Firefly/Renilla x1000 (MEAN)” value (MST1–LATS2 signaling; single culture dishes) of the same compound?
A: 12.1618

Q: And the inhibition at 10 µM (ITK)?
A: 88%

Q: What about the inhibition at 10 µM (IGF1R) of the same compound?
A: 37%

Q: And the insulin secretion ([1]; db/db)?
A: enhanced insulin secretion

Q: And the GSIS ([1]; time after glucose injection 0, MEAN)?
A: 7.868

Q: And the GSIS ([1]; time after glucose injection 0, individual mice)?
A: 7.6163 and 7.7481 and 3.303 and 9.154 and 8.9273 and 10.458

Q: What about the GSIS ([1]; time after glucose injection 15, MEAN) of the same compound?
A: 11.2434

Q: And the GSIS ([1]; time after glucose injection 15, individual mice)?
A: 17.086 and 7.6058 and 10.292 and 7.1842 and 8.1355 and 17.157

Q: What about the “number of kinases with >50% of inhibition” value [2] of the same compound?
A: 16

Q: What about the inhibition at 10 µM (CSK) of the same compound?
A: 95%

Q: And the Ki67%/ mouse (MLD–STZ C57BL/6J mice [3]; NeraCtr group (no STZ), MEAN)?
A: 0.3774%

Q: What about the Ki67%/ mouse (MLD–STZ C57BL/6J mice [3]; NeraCtr group (no STZ), individual mice) of the same compound?
A: 0% and 2% and 1.019%

Q: What about the Ki67%/ mouse (MLD–STZ C57BL/6J mice [3]; NeraSTZ group, MEAN) of the same compound?
A: 3.98%

Q: And the Ki67%/ mouse (MLD–STZ C57BL/6J mice [3]; NeraSTZ group, individual mice)?
A: 0% and 6.981% and 5.492% and 7.984% and 3.425%

Q: What about the inhibition at 10 µM (JAK2) of the same compound?
A: 18%

Q: And the inhibition at 10 µM (JNK2)?
A: 84%

Q: What about the “β-cell apoptosis induced by MST1 overexpression” value (human islets; 10 μM, 48 h) of the same compound?
A: significantly blocked; also recorded: almost fully blocked

Q: And the “mean TUNEL/isolation/%” value (human islets; mean, LacZ = 100)?
A: 126.263%

Q: And the “mean TUNEL/isolation/%” value (human islets; single isolations, LacZ mean = 100)?
A: 100% and 145.455% and 133.333%

Q: And the “insulin sensitivity (normalized glucose levels)” value (MLD–STZ C57BL/6J mice [4]; MLD–STZ study)?
A: neither neratinib nor STZ had a significant effect

Q: And the ipITT glucose (MLD–STZ C57BL/6J mice [4]; NeraCtr, 0 min, Mean)?
A: 130.4

Q: What about the “ipITT glucose normalized to 100, MEAN” value (MLD–STZ C57BL/6J mice [4]; NeraCtr, 0 min after ins) of the same compound?
A: 100

Q: What about the ipITT glucose (MLD–STZ C57BL/6J mice [4]; NeraCtr, 0 min after ins, individual mice) of the same compound?
A: 135 and 120 and 117 and 132 and 148

Q: And the ipITT glucose (MLD–STZ C57BL/6J mice [4]; NeraCtr, 15 min, Mean)?
A: 84.6

Q: And the “ipITT glucose normalized to 100, MEAN” value (MLD–STZ C57BL/6J mice [4]; NeraCtr, 15 min after ins)?
A: 64.88

Q: And the ipITT glucose (MLD–STZ C57BL/6J mice [4]; NeraCtr, 15 min after ins, individual mice)?
A: 94 and 83 and 116 and 55 and 75

Q: What about the ipITT glucose (MLD–STZ C57BL/6J mice [4]; NeraCtr, 30 min, Mean) of the same compound?
A: 84.4

Q: And the “ipITT glucose normalized to 100, MEAN” value (MLD–STZ C57BL/6J mice [4]; NeraCtr, 30 min after ins)?
A: 64.72

Q: What about the ipITT glucose (MLD–STZ C57BL/6J mice [4]; NeraCtr, 30 min after ins, individual mice) of the same compound?
A: 80 and 67 and 123 and 71 and 81

Q: What about the ipITT glucose (MLD–STZ C57BL/6J mice [4]; NeraCtr, 60 min, Mean) of the same compound?
A: 82.8

Q: What about the “ipITT glucose normalized to 100, MEAN” value (MLD–STZ C57BL/6J mice [4]; NeraCtr, 60 min after ins) of the same compound?
A: 63.5

Q: And the ipITT glucose (MLD–STZ C57BL/6J mice [4]; NeraCtr, 60 min after ins, individual mice)?
A: 84 and 80 and 121 and 48 and 81

Q: And the ipITT glucose (MLD–STZ C57BL/6J mice [4]; NeraCtr, 90 min, Mean)?
A: 89

Q: And the “ipITT glucose normalized to 100, MEAN” value (MLD–STZ C57BL/6J mice [4]; NeraCtr, 90 min after ins)?
A: 68.25

Q: And the ipITT glucose (MLD–STZ C57BL/6J mice [4]; NeraCtr, 90 min after ins, individual mice)?
A: 90 and 87 and 129 and 52

Q: And the ipITT glucose (MLD–STZ C57BL/6J mice [4]; NeraSTZ, 0 min, Mean)?
A: 286.636

Q: And the “ipITT glucose normalized to 100, MEAN” value (MLD–STZ C57BL/6J mice [4]; NeraSTZ, 0 min after ins)?
A: 100

Q: What about the ipITT glucose (MLD–STZ C57BL/6J mice [4]; NeraSTZ, 0 min after ins, individual mice) of the same compound?
A: 462 and 369 and 228 and 215 and 295 and 196 and 335 and 337 and 212 and 296 and 208

Q: And the ipITT glucose (MLD–STZ C57BL/6J mice [4]; NeraSTZ, 15 min, Mean)?
A: 267.636

Q: What about the “ipITT glucose normalized to 100, MEAN” value (MLD–STZ C57BL/6J mice [4]; NeraSTZ, 15 min after ins) of the same compound?
A: 93.37

Q: And the ipITT glucose (MLD–STZ C57BL/6J mice [4]; NeraSTZ, 15 min after ins, individual mice)?
A: 244 and 341 and 151 and 180 and 262 and 206 and 353 and 362 and 225 and 333 and 287

Q: And the ipITT glucose (MLD–STZ C57BL/6J mice [4]; NeraSTZ, 30 min, Mean)?
A: 187.273

Q: What about the “ipITT glucose normalized to 100, MEAN” value (MLD–STZ C57BL/6J mice [4]; NeraSTZ, 30 min after ins) of the same compound?
A: 65.33

Q: And the ipITT glucose (MLD–STZ C57BL/6J mice [4]; NeraSTZ, 30 min after ins, individual mice)?
A: 114 and 186 and 102 and 127 and 207 and 173 and 304 and 307 and 97 and 216 and 227

Q: What about the ipITT glucose (MLD–STZ C57BL/6J mice [4]; NeraSTZ, 60 min, Mean) of the same compound?
A: 132.545

Q: What about the “ipITT glucose normalized to 100, MEAN” value (MLD–STZ C57BL/6J mice [4]; NeraSTZ, 60 min after ins) of the same compound?
A: 46.24

Q: And the ipITT glucose (MLD–STZ C57BL/6J mice [4]; NeraSTZ, 60 min after ins, individual mice)?
A: 123 and 110 and 79 and 95 and 108 and 169 and 231 and 87 and 198 and 150

Q: What about the ipITT glucose (MLD–STZ C57BL/6J mice [4]; NeraSTZ, 90 min, Mean) of the same compound?
A: 132.455

Q: And the “ipITT glucose normalized to 100, MEAN” value (MLD–STZ C57BL/6J mice [4]; NeraSTZ, 90 min after ins)?
A: 46.21

Q: What about the ipITT glucose (MLD–STZ C57BL/6J mice [4]; NeraSTZ, 90 min after ins, individual mice) of the same compound?
A: 174 and 97 and 79 and 135 and 116 and 100 and 155 and 203 and 103 and 136 and 159

Q: What about the inhibition at 10 µM (ROCK1) of the same compound?
A: -48%

Q: What about the body weight (db/db model: body weight) of the same compound?
A: no influence on body weight

Q: What about the “activity on MST family members” value (MST family members) of the same compound?
A: potent activity

Q: What about the inhibition at 10 µM (PRKD2) of the same compound?
A: 71%
